Test results: BindingDB's records for doi:10.1016/j.bmcl.2005.07.039 (Universit&#233, 2005)

Experiments:
[1] = biological target: Sigma non-opioid intracellular receptor 1 (Cavia porcellus) (UniProt Q60492); assay: Inhibitory activity against opioid receptor sigma 1 in guinea pig cerebral cortex using [3H](+)-pentazocine as radio ligand at pH 7.5 for 150 min at 22 degree C
[2] = biological target: Sigma non-opioid intracellular receptor 1 (Cavia porcellus) (UniProt Q60492); assay: Inhibitory activity against Opioid receptor sigma 1 in guinea pig cerebral cortex using [3H](+)-pentazocine as radio ligand at pH 7.5 for 150 min at 22 C

Chain of Sigma non-opioid intracellular receptor 1 (Cavia porcellus) (Q60492 whole entry, looked up): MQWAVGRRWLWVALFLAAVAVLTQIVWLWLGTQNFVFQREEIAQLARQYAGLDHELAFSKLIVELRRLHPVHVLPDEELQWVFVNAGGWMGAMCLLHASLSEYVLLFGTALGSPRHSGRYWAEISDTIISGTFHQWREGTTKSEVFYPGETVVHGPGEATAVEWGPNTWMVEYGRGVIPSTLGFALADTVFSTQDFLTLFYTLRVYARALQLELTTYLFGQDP

SMILES | IC50 [1] | IC50 [2]
CC(C)NC(=O)CN1CCN(CCn2c(O)c3n(c2=O)Cc2ccccc2C3)CC1 [2-{4-[2-((S)-1,3-Dioxo-1,5,10,10a-tetrahydro-imidazo[1,5-b]isoquinolin-2-yl)-ethyl]-piperazin-1-yl}-N-isopropyl-acetamide] | > 100 nM | –
O=c1n(CCCNCc2ccccc2)c(O)c2n1Cc1ccccc1C2 [(S)-2-(3-Benzylamino-propyl)-10,10a-dihydro-5H-imidazo[1,5-b]isoquinoline-1,3-dione] | 9.6 nM | –
CN1CCN(CCn2c(O)c3n(c2=O)Cc2ccccc2C3)CC1 [(S)-2-[2-(4-Methyl-piperazin-1-yl)-ethyl]-10,10a-dihydro-5H-imidazo[1,5-b]isoquinoline-1,3-dione] | > 100 nM | –
CN(CCn1c(O)c2n(c1=O)Cc1ccccc1C2)Cc1ccccc1 [(S)-2-[2-(Benzyl-methyl-amino)-ethyl]-10,10a-dihydro-5H-imidazo[1,5-b]isoquinoline-1,3-dione] | 4.5 nM | –
CN(CCc1ccccc1)CCn1c(O)c2n(c1=O)Cc1ccccc1C2 [(S)-2-[2-(Methyl-phenethyl-amino)-ethyl]-10,10a-dihydro-5H-imidazo[1,5-b]isoquinoline-1,3-dione] | 12.6 nM | –
O=c1n(CCCNC2CCN(Cc3ccccc3)CC2)c(O)c2n1Cc1ccccc1C2 [(S)-2-[3-(1-Benzyl-piperidin-4-ylamino)-propyl]-10,10a-dihydro-5H-imidazo[1,5-b]isoquinoline-1,3-dione] | 82.3 nM | –
O=c1n(CCCN2CCN(Cc3ccc4c(c3)OCO4)CC2)c(O)c2n1Cc1ccccc1C2 [(S)-2-[3-(4-Benzo[1,3]dioxol-5-ylmethyl-piperazin-1-yl)-propyl]-10,10a-dihydro-5H-imidazo[1,5-b]isoquinoline-1,3-dione] | 23.8 nM | –
O=c1n(CCCN2CCN(Cc3ccccc3)CC2)c(O)c2n1Cc1ccccc1C2 [(S)-2-[3-(4-Benzyl-piperazin-1-yl)-propyl]-10,10a-dihydro-5H-imidazo[1,5-b]isoquinoline-1,3-dione] | 32 nM | –
CN1CCN(CCCn2c(O)c3n(c2=O)Cc2ccccc2C3)CC1 [(S)-2-[3-(4-Methyl-piperazin-1-yl)-propyl]-10,10a-dihydro-5H-imidazo[1,5-b]isoquinoline-1,3-dione] | > 100 nM | –
O=c1n(CCCNCCCCc2ccccc2)c(O)c2n1Cc1ccccc1C2 [(S)-2-[3-(4-Phenyl-butylamino)-propyl]-10,10a-dihydro-5H-imidazo[1,5-b]isoquinoline-1,3-dione] | 10.5 nM | –
CN(CCCn1c(O)c2n(c1=O)Cc1ccccc1C2)CCc1ccccc1 [(S)-2-[3-(Methyl-phenethyl-amino)-propyl]-10,10a-dihydro-5H-imidazo[1,5-b]isoquinoline-1,3-dione] | 2.1 nM | –
CN(CCCn1c(O)c2n(c1=O)Cc1ccccc1C2)c1ccccc1 [(S)-2-[3-(Methyl-phenyl-amino)-propyl]-10,10a-dihydro-5H-imidazo[1,5-b]isoquinoline-1,3-dione] | > 100 nM | –
CN(CCCCn1c(O)c2n(c1=O)Cc1ccccc1C2)Cc1ccccc1 [(S)-2-[4-(Benzyl-methyl-amino)-butyl]-10,10a-dihydro-5H-imidazo[1,5-b]isoquinoline-1,3-dione] | 4.2 nM | –
CN(CCCCn1c(O)c2n(c1=O)Cc1ccccc1C2)CCc1ccccc1 [(S)-2-[4-(Methyl-phenethyl-amino)-butyl]-10,10a-dihydro-5H-imidazo[1,5-b]isoquinoline-1,3-dione] | 9.9 nM | –
CN(CCCCCn1c(O)c2n(c1=O)Cc1ccccc1C2)Cc1ccccc1 [(S)-2-[5-(Benzyl-methyl-amino)-pentyl]-10,10a-dihydro-5H-imidazo[1,5-b]isoquinoline-1,3-dione] | 5 nM | –
CN(CCCCCn1c(O)c2n(c1=O)Cc1ccccc1C2)CCc1ccccc1 [(S)-2-[5-(Methyl-phenethyl-amino)-pentyl]-10,10a-dihydro-5H-imidazo[1,5-b]isoquinoline-1,3-dione] | 11.7 nM | –
CN(CCCCCCn1c(O)c2n(c1=O)Cc1ccccc1C2)Cc1ccccc1 [(S)-2-[6-(Benzyl-methyl-amino)-hexyl]-10,10a-dihydro-5H-imidazo[1,5-b]isoquinoline-1,3-dione] | 9.4 nM | –
CN(CCCCCCn1c(O)c2n(c1=O)Cc1ccccc1C2)CCc1ccccc1 [(S)-2-[6-(Methyl-phenethyl-amino)-hexyl]-10,10a-dihydro-5H-imidazo[1,5-b]isoquinoline-1,3-dione] | – | 29.5 nM
O=c1n(CCN2CCN(CCO)CC2)c(O)c2n1Cc1ccccc1C2 [(S)-2-{2-[4-(2-Hydroxy-ethyl)-piperazin-1-yl]-ethyl}-10,10a-dihydro-5H-imidazo[1,5-b]isoquinoline-1,3-dione] | > 100 nM | –
CN(C)CCCN1CCN(CCn2c(O)c3n(c2=O)Cc2ccccc2C3)CC1 [(S)-2-{2-[4-(3-Dimethylamino-propyl)-piperazin-1-yl]-ethyl}-10,10a-dihydro-5H-imidazo[1,5-b]isoquinoline-1,3-dione] | > 1000 nM | –
CN(CCCc1ccccc1)CCn1c(O)c2n(c1=O)Cc1ccccc1C2 [(S)-2-{2-[Methyl-(3-phenyl-propyl)-amino]-ethyl}-10,10a-dihydro-5H-imidazo[1,5-b]isoquinoline-1,3-dione] | 13.6 nM | –
CN(CCCCc1ccccc1)CCn1c(O)c2n(c1=O)Cc1ccccc1C2 [(S)-2-{2-[Methyl-(4-phenyl-butyl)-amino]-ethyl}-10,10a-dihydro-5H-imidazo[1,5-b]isoquinoline-1,3-dione] | 3.2 nM | –
CN(CCCCCc1ccccc1)CCn1c(O)c2n(c1=O)Cc1ccccc1C2 [(S)-2-{2-[Methyl-(5-phenyl-pentyl)-amino]-ethyl}-10,10a-dihydro-5H-imidazo[1,5-b]isoquinoline-1,3-dione] | 2.9 nM | –
O=c1n(CCCN2CCN(CCO)CC2)c(O)c2n1Cc1ccccc1C2 [(S)-2-{3-[4-(2-Hydroxy-ethyl)-piperazin-1-yl]-propyl}-10,10a-dihydro-5H-imidazo[1,5-b]isoquinoline-1,3-dione] | > 100 nM | –
CN(C)CCCN1CCN(CCCn2c(O)c3n(c2=O)Cc2ccccc2C3)CC1 [(S)-2-{3-[4-(3-Dimethylamino-propyl)-piperazin-1-yl]-propyl}-10,10a-dihydro-5H-imidazo[1,5-b]isoquinoline-1,3-dione] | > 100 nM | –
